In ChEMBL document CHEMBL1914418, “Biochemical and pharmacological profiling of the pro-survival protein Bcl-xL” (Bioorg Med Chem Lett, 2011):

Key:
[1] = target: T1, Induced myeloid leukemia cell differentiation protein Mcl-1 homolog (Mus musculus, UniProt P97287); test: Displacement of BODIPY-Bak conjugated peptide from GST-tagged mouse wild type MCL1 expressed in Escherichia coli BL21 cells at 10 uM after 3 hrs by fluorescence polarization competition assay
Bcl-2-like protein 1 [2] = target: T2, Bcl-2-like protein 1 (Homo sapiens, UniProt Q07817, L130G); test: Displacement of BODIPY-Bak conjugated peptide from GST-tagged human Bcl-2-like protein 1 L130G mutant expressed in Escherichia coli BL21 cells at 10 uM after 3 hrs by fluorescence polarization competition assay
T2 sequence (Q07817 whole entry L130G): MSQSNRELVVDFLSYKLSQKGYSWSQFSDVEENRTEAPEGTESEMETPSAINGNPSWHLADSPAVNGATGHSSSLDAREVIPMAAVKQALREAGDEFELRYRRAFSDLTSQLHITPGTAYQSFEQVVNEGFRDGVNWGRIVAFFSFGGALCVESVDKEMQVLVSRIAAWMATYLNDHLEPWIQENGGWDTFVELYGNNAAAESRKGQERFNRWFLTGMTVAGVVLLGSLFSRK

Bcl-2-like protein 1 [3] = target: T3, Bcl-2-like protein 1 (Homo sapiens, UniProt Q07817); test: Displacement of BODIPY-Bak conjugated peptide from GST-tagged human Wild type Bcl-2-like protein 1 expressed in Escherichia coli BL21 cells at 10 uM after 3 hrs by fluorescence polarization competition assay
T3 sequence (Q07817 whole entry): as the sequence (Q07817 whole entry L130G) above, with G130L counted along it

Bcl-2-like protein 1 [4] = target: T4, Bcl-2-like protein 1 (Homo sapiens, UniProt Q07817, L130V); test: Displacement of BODIPY-Bak conjugated peptide from GST-tagged human Bcl-2-like protein 1 L130V mutant expressed in Escherichia coli BL21 cells at 10 uM after 3 hrs by fluorescence polarization competition assay
T4 sequence (Q07817 whole entry L130V): as the sequence (Q07817 whole entry L130G) above, with G130V counted along it

Bcl-2-like protein 2 = target: T5, Bcl-2-like protein 2 (Homo sapiens, UniProt Q92843); test: Displacement of BODIPY-Bak conjugated peptide from GST-tagged human wild type Bcl-W expressed in Escherichia coli BL21 cells at 10 uM after 3 hrs by fluorescence polarization competition assay
T5 sequence (Q92843 whole entry): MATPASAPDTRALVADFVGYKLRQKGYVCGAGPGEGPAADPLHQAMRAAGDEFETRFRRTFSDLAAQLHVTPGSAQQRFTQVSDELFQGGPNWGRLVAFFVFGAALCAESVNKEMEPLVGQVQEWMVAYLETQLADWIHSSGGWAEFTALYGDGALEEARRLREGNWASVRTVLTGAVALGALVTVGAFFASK

Bcl-2-like protein 1 [5] = target: Bcl-2-like protein 1 (Homo sapiens, UniProt Q07817, R100E); test: Displacement of BODIPY-Bak conjugated peptide from GST-tagged human Bcl-2-like protein 1 R100E mutant expressed in Escherichia coli BL21 cells at 40 uM after 3 hrs by fluorescence polarization competition assay
Chain of Bcl-2-like protein 1 (Homo sapiens, UniProt Q07817, R100E) (Q07817 whole entry R100E): as the sequence (Q07817 whole entry L130G) above, with R100E, G130L counted along it

Bcl-2-like protein 1 [6] = target: Bcl-2-like protein 1 (Homo sapiens, UniProt Q07817, F97V); test: Displacement of BODIPY-Bak conjugated peptide from GST-tagged human Bcl-2-like protein 1 F97V mutant expressed in Escherichia coli BL21 cells at 40 uM after 3 hrs by fluorescence polarization competition assay
Chain of Bcl-2-like protein 1 (Homo sapiens, UniProt Q07817, F97V) (Q07817 whole entry F97V): as the sequence (Q07817 whole entry L130G) above, with F97V, G130L counted along it

Bcl-2-like protein 1 [7] = target: T4, Bcl-2-like protein 1; test: Displacement of BODIPY-Bak conjugated peptide from GST-tagged human Bcl-2-like protein 1 L130V mutant expressed in Escherichia coli BL21 cells at 40 uM after 3 hrs by fluorescence polarization competition assay
Bcl-2-like protein 1 [8] = target: T3, Bcl-2-like protein 1; test: Displacement of BODIPY-Bak conjugated peptide from GST-tagged human Wild type Bcl-2-like protein 1 expressed in Escherichia coli BL21 cells at 40 uM after 3 hrs by fluorescence polarization competition assay
Bcl-2-like protein 1 [9] = target: Bcl-2-like protein 1 (Homo sapiens, UniProt Q07817, Y101H); test: Displacement of BODIPY-Bak conjugated peptide from GST-tagged human Bcl-2-like protein 1 Y101H mutant expressed in Escherichia coli BL21 cells at 40 uM after 3 hrs by fluorescence polarization competition assay
Chain of Bcl-2-like protein 1 (Homo sapiens, UniProt Q07817, Y101H) (Q07817 whole entry Y101H): as the sequence (Q07817 whole entry L130G) above, with Y101H, G130L counted along it

Bcl-2-like protein 1 [10] = target: Bcl-2-like protein 1 (Homo sapiens, UniProt Q07817, Y195F); test: Displacement of BODIPY-Bak conjugated peptide from GST-tagged human Bcl-2-like protein 1 Y195F mutant expressed in Escherichia coli BL21 cells at 40 uM after 3 hrs by fluorescence polarization competition assay
Chain of Bcl-2-like protein 1 (Homo sapiens, UniProt Q07817, Y195F) (Q07817 whole entry Y195F): as the sequence (Q07817 whole entry L130G) above, with G130L, Y195F counted along it

Bcl-2-like protein 1 [11] = target: Bcl-2-like protein 1 (Homo sapiens, UniProt Q07817, E129H); test: Displacement of BODIPY-Bak conjugated peptide from GST-tagged human Bcl-2-like protein 1 E129H mutant expressed in Escherichia coli BL21 cells at 40 uM after 3 hrs by fluorescence polarization competition assay
Chain of Bcl-2-like protein 1 (Homo sapiens, UniProt Q07817, E129H) (Q07817 whole entry E129H): as the sequence (Q07817 whole entry L130G) above, with E129H, G130L counted along it

Bcl-2-like protein 1 [12] = target: T2, Bcl-2-like protein 1; test: Displacement of BODIPY-Bak conjugated peptide from GST-tagged human Bcl-2-like protein 1 L130G mutant expressed in Escherichia coli BL21 cells at 40 uM after 3 hrs by fluorescence polarization competition assay
[13] = Displacement of BODIPY-Bak conjugated peptide from GST-tagged human Bcl-2-like protein 1 delta136T mutant expressed in Escherichia coli BL21 cells at 40 uM after 3 hrs by fluorescence polarization competition assay
Bcl-2-like protein 1 [14] = target: Bcl-2-like protein 1 (Homo sapiens, UniProt Q07817, G196A); test: Displacement of BODIPY-Bak conjugated peptide from GST-tagged human Bcl-2-like protein 1 G196A mutant expressed in Escherichia coli BL21 cells at 40 uM after 3 hrs by fluorescence polarization competition assay
Chain of Bcl-2-like protein 1 (Homo sapiens, UniProt Q07817, G196A) (Q07817 whole entry G196A): as the sequence (Q07817 whole entry L130G) above, with G130L, G196A counted along it

Bcl-2-like protein 1 [15] = target: Bcl-2-like protein 1 (Homo sapiens, UniProt Q07817, A142T); test: Displacement of BODIPY-Bak conjugated peptide from GST-tagged human Bcl-2-like protein 1 A142T mutant expressed in Escherichia coli BL21 cells at 40 uM after 3 hrs by fluorescence polarization competition assay
Chain of Bcl-2-like protein 1 (Homo sapiens, UniProt Q07817, A142T) (Q07817 whole entry A142T): as the sequence (Q07817 whole entry L130G) above, with G130L, A142T counted along it

Bcl-2-like protein 1 [16] = target: Bcl-2-like protein 1 (Homo sapiens, UniProt Q07817, L130A); test: Displacement of BODIPY-Bak conjugated peptide from GST-tagged human Bcl-2-like protein 1 L130A mutant expressed in Escherichia coli BL21 cells at 40 uM after 3 hrs by fluorescence polarization competition assay
Chain of Bcl-2-like protein 1 (Homo sapiens, UniProt Q07817, L130A) (Q07817 whole entry L130A): as the sequence (Q07817 whole entry L130G) above, with G130A counted along it

Bcl-2-like protein 1 [17] = target: Bcl-2-like protein 1 (Homo sapiens, UniProt Q07817, A142G); test: Displacement of BODIPY-Bak conjugated peptide from GST-tagged human Bcl-2-like protein 1 A142G mutant expressed in Escherichia coli BL21 cells at 40 uM after 3 hrs by fluorescence polarization competition assay
Chain of Bcl-2-like protein 1 (Homo sapiens, UniProt Q07817, A142G) (Q07817 whole entry A142G): as the sequence (Q07817 whole entry L130G) above, with G130L, A142G counted along it

Bcl-2-like protein 1 [18] = target: Bcl-2-like protein 1 (Homo sapiens, UniProt Q07817, A93V); test: Displacement of BODIPY-Bak conjugated peptide from GST-tagged human Bcl-2-like protein 1 A93V mutant expressed in Escherichia coli BL21 cells at 40 uM after 3 hrs by fluorescence polarization competition assay
Chain of Bcl-2-like protein 1 (Homo sapiens, UniProt Q07817, A93V) (Q07817 whole entry A93V): as the sequence (Q07817 whole entry L130G) above, with A93V, G130L counted along it

[19] = Displacement of BODIPY-Bak conjugated peptide from GST-tagged human Bcl-2-like protein 1 A142G, delta136T mutant expressed in Escherichia coli BL21 cells at 40 uM after 3 hrs by fluorescence polarization competition assay
Bcl-2-like protein 1 [20] = target: Bcl-2-like protein 1 (Homo sapiens, UniProt Q07817, E96G); test: Displacement of BODIPY-Bak conjugated peptide from GST-tagged human Bcl-2-like protein 1 E96G mutant expressed in Escherichia coli BL21 cells at 40 uM after 3 hrs by fluorescence polarization competition assay
Chain of Bcl-2-like protein 1 (Homo sapiens, UniProt Q07817, E96G) (Q07817 whole entry E96G): as the sequence (Q07817 whole entry L130G) above, with E96G, G130L counted along it

Bcl-2-like protein 1 [21] = target: Bcl-2-like protein 1 (Homo sapiens, UniProt Q07817, V141A); test: Displacement of BODIPY-Bak conjugated peptide from GST-tagged human Bcl-2-like protein 1 V141A mutant expressed in Escherichia coli BL21 cells at 40 uM after 3 hrs by fluorescence polarization competition assay
Chain of Bcl-2-like protein 1 (Homo sapiens, UniProt Q07817, V141A) (Q07817 whole entry V141A): as the sequence (Q07817 whole entry L130G) above, with G130L, V141A counted along it

[22] = target: T1, Induced myeloid leukemia cell differentiation protein Mcl-1 homolog; test: Binding affinity for GST-tagged mouse MCL1 expressed in Escherichia coli BL21 cells
Bcl-2-related protein A1 = target: T6, Bcl-2-related protein A1 (Homo sapiens, UniProt Q16548); test: Binding affinity for GST-tagged human BCL2A1 expressed in Escherichia coli BL21 cells
T6 sequence (Q16548 whole entry): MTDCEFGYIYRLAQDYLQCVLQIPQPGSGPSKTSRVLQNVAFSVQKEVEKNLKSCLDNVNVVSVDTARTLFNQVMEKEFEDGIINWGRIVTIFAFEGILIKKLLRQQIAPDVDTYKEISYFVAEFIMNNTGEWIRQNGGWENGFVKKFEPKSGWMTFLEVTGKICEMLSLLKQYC

[23] = Displacement of BODIPY-Bak conjugated peptide from GST-tagged human Bcl-2-like protein 1 delta136T mutant expressed in Escherichia coli BL21 cells at 10 uM after 3 hrs by fluorescence polarization competition assay
[24] = Displacement of BODIPY-Bak conjugated peptide from GST-tagged human Bcl-2-like protein 1 A142Gdelta136T mutant expressed in Escherichia coli BL21 cells at 10 uM after 3 hrs by fluorescence polarization competition assay

T1 sequence (P97287 whole entry): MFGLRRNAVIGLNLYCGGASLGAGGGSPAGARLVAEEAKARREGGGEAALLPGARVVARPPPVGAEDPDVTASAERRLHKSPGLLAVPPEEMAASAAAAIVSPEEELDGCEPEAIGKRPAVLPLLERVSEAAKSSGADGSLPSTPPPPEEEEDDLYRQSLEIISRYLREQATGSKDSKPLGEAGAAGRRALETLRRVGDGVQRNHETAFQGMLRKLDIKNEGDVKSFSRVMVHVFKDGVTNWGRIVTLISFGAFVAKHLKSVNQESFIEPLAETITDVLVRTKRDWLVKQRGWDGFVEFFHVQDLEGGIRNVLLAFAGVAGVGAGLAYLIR

Molecule	Ki [1] [nM]	Ki (Bcl-2-like protein 1 [2]) [nM]	Ki (Bcl-2-like protein 1 [3]) [nM]	Ki (Bcl-2-like protein 1 [4]) [nM]	Ki (Bcl-2-like protein 2) [nM]	Ki (Bcl-2-like protein 1 [5]) [nM]	Ki (Bcl-2-like protein 1 [6]) [nM]	Ki (Bcl-2-like protein 1 [7]) [nM]	Ki (Bcl-2-like protein 1 [8]) [nM]	Ki (Bcl-2-like protein 1 [9]) [nM]	Ki (Bcl-2-like protein 1 [10]) [nM]	Ki (Bcl-2-like protein 1 [11]) [nM]	Ki (Bcl-2-like protein 1 [12]) [nM]	Ki [13] [nM]	Ki (Bcl-2-like protein 1 [14]) [nM]	Ki (Bcl-2-like protein 1 [15]) [nM]	Ki (Bcl-2-like protein 1 [16]) [nM]	Ki (Bcl-2-like protein 1 [17]) [nM]	Ki (Bcl-2-like protein 1 [18]) [nM]	Ki [19] [nM]	also measured
C[C@H]1CN(c2ccc(C(=O)NS(=O)(=O)c3ccc(N[C@H](CCN(C)C)CSc4ccccc4)c([N+](=O)[O-])c3)cc2)CCN1Cc1ccccc1C(F)(F)F	2000	99	< 1	< 1	63	–	–	–	–	–	–	–	–	–	–	–	–	–	–	–	–
C[C@@H]1CN(c2ccc(C(=O)NS(=O)(=O)c3ccc(N[C@H](CCN(C)C)CSc4ccccc4)c([N+](=O)[O-])c3)cc2)CCN1Cc1ccccc1C(F)(F)F	1500	81	1	3.7	55	–	–	–	–	–	–	–	–	–	–	–	–	–	–	–	–
CC1CN(c2ccc(C(=O)NS(=O)(=O)c3ccc(N[C@H](CCN(C)C)CSc4ccccc4)c([N+](=O)[O-])c3)cc2)CC(C)N1Cc1ccccc1C(F)(F)F (stereo not given in full)	> 10000	140	68	96	170	–	–	–	–	–	–	–	–	–	–	–	–	–	–	–	–
CC(C)[C@H]1CN(Cc2ccccc2C(F)(F)F)CCN1c1ccc(C(=O)NS(=O)(=O)c2ccc(N[C@H](CCN(C)C)CSc3ccccc3)c([N+](=O)[O-])c2)cc1	2000	83	3.3	63	59	–	–	–	–	–	–	–	–	–	–	–	–	–	–	–	–
CC(C)[C@@H]1CN(Cc2ccccc2C(F)(F)F)CCN1c1ccc(C(=O)NS(=O)(=O)c2ccc(N[C@H](CCN(C)C)CSc3ccccc3)c([N+](=O)[O-])c2)cc1	2000	280	2.6	42	21	–	–	–	–	–	–	–	–	–	–	–	–	–	–	–	–
CSCC[C@H](NC(=O)[C@H](CCCNC(=N)N)NC(=O)[C@H](CCCNC(=N)N)NC(=O)[C@H](CC(C)C)NC(=O)[C@H](CCC(=O)O)NC(=O)[C@H](CCCNC(=N)N)NC(=O)CNC(=O)[C@H](Cc1ccc(O)cc1)NC(=O)[C@H](CCCNC(=N)N)NC(=O)[C@H](CCC(N)=O)NC(=O)[C@H](C)NC(=O)[C@H](C)NC(=O)[C@H](Cc1c[nH]c2ccccc12)NC(=O)[C@@H](N)CC(C)C)C(=O)N[C@@H](CO)C(=O)N[C@@H](CC(=O)O)C(=O)N[C@@H](CCC(=O)O)C(=O)N[C@@H](Cc1ccccc1)C(=O)N[C@@H](CCC(=O)O)C(=O)NCC(=O)N[C@@H](CO)C(=O)N[C@@H](Cc1ccccc1)C(=O)N[C@@H](CCCCN)C(=O)NCC(=O)N[C@@H](CC(C)C)C(=O)O	–	–	–	–	–	55	150	11	3.2	96	4.5	77	660	8.5	2.3	41	140	< 1	< 1	9.8	Ki (Bcl-2-like protein 1 [20]): < 5 nM; Ki (Bcl-2-like protein 1 [21]): 42 nM
CC[C@H](C)[C@H](NC(=O)[C@H](CCC(=O)O)NC(=O)[C@H](CCCNC(=N)N)NC(=O)[C@H](C)NC(=O)[C@H](Cc1c[nH]c2ccccc12)NC(=O)[C@H](CCC(N)=O)NC(=O)[C@H](CCC(=O)O)NC(=O)[C@@H](N)CCC(=O)O)C(=O)NCC(=O)N[C@@H](C)C(=O)N[C@@H](CCC(N)=O)C(=O)N[C@@H](CC(C)C)C(=O)N[C@@H](CCCNC(=N)N)C(=O)N[C@@H](CCCNC(=N)N)C(=O)N[C@@H](CCSC)C(=O)N[C@@H](C)C(=O)N[C@@H](CC(=O)O)C(=O)N[C@@H](CC(=O)O)C(=O)N[C@@H](CC(C)C)C(=O)N[C@@H](CC(N)=O)C(=O)N[C@@H](C)C(=O)N[C@@H](CCC(N)=O)C(=O)N[C@@H](Cc1ccc(O)cc1)C(=O)N[C@@H](CCC(=O)O)C(=O)N[C@@H](CCCNC(=N)N)C(=O)N[C@@H](CCCNC(=N)N)C(=O)O	–	–	–	–	–	180	89	29	1.4	380	8.7	170	530	26	8.9	130	120	9.7	> 10000	75	Ki (Bcl-2-like protein 1 [20]): > 10000 nM; Ki (Bcl-2-like protein 1 [21]): 100 nM
CN(C)CC[C@H](CSc1ccccc1)Nc1ccc(S(=O)(=O)NC(=O)c2ccc(N3CCN(Cc4ccccc4C(F)(F)F)CC3)cc2)cc1[N+](=O)[O-]	> 10000	200	3.5	11	49	–	–	–	–	–	–	–	–	–	–	–	–	–	–	–	–
CN(C)CC[C@H](CSc1ccccc1)Nc1ccc(S(=O)(=O)NC(=O)c2ccc(N3CCN(Cc4ccccc4-c4ccc(Cl)cc4)CC3)cc2)cc1[N+](=O)[O-] [ABT 737]	–	–	–	–	–	–	–	–	–	–	–	–	–	–	–	–	–	–	–	–	Kd [22]: > 1000 nM; Kd (Bcl-2-related protein A1): > 1000 nM; Ki [23]: 60 nM; Ki [24]: 10 nM
H-PAELEVECATQLRRFGDKLNFRQKLL-OH	–	–	–	–	–	> 10000	> 10000	> 10000	> 10000	> 10000	> 10000	> 10000	> 10000	> 10000	> 10000	> 10000	> 10000	> 10000	> 10000	> 10000	Ki (Bcl-2-like protein 1 [20]): > 10000 nM; Ki (Bcl-2-like protein 1 [21]): > 10000 nM
